Experimental findings from patent publication US20100324049A1, “DIARYL KETIMINE DERIVATIVE HAVING ANTAGONISM AGAINST MELANIN-CONCENTRATING HORMONE RECEPTOR” (priority 2007, published 2010) are described below.

By IC50 is commonly meant the concentration needed to halve the response being measured. Low readings indicate higher potency, high ones lower potency.

T1 sequence (Q99705 whole entry): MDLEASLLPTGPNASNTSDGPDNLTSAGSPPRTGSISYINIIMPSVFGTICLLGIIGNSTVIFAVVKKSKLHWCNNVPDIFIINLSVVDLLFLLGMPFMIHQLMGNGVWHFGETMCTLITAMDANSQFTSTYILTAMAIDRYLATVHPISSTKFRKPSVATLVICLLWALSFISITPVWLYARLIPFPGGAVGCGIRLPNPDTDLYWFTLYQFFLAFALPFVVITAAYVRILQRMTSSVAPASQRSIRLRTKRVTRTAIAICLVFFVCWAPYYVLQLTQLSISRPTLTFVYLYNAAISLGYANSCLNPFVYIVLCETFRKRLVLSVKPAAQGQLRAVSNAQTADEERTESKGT

This test concerns the target T1, human MCH-1R (Homo sapiens, UniProt Q99705).
T1 construct: expressed in transfected cells; host or cells: CHO-K1 (American Type Culture Collection), plasmid vector pEF/myc/cyto
The test is described as follows: MCH binding inhibition test. The following applies: inhibition of specific [125I]MCH (50 pM) binding; membrane specimen from MCH-1R-expressing CHO-K1 cells; 25° C., 1 hour. The text has this: A cDNA sequence encoding human MCH-1R [FEBS Letters, Vol. 398, 253 (1996); Biochimica et Biophisica Acta, Vol. 1401, 216 (1998)] was cloned into a plasmid vector pEF/myc/cyto (manufactured by In Vitro Gene). The expression plasmid thus obtained was transfected into host cells CHO-K1 (American Type Culture Collection) by using lipofectAMINE PLUS reagent (manufactured by Life Technologies) to thereby give MCH-1R-expressing cells.
A membrane specimen prepared from the MCH-1R-expressing cells was incubated together with a test compound and 50 pM of [^125I]MCH (manufactured by NEN) in an assay buffer (a 50 mM Tris buffer (pH7.4) containing 10 mM of magnesium chloride, 2 mM of ethylenediaminetetracetic acid, 0.01% of bacitracin and 0.2% of bovine serum albumin) at 25° C. for 1 hour, and then filtered through a glass filter GF/C (manufactured by Whatman). After washing the glass filter with a 50 mM Tris buffer (pH7.4) containing 10 mM of magnesium chloride, 2 mM of ethylenediaminetetracetic acid and 0.04% of Tween-20, the radioactivity on the glass filter was determined. Nonspecific binding was measured in the presence of 1 μM human MCH and the 50% inhibitory concentration (IC50) of the test compound to the specific binding to [^125I]MCH was determined. Table 1 indicates the results.
`CCO/N=C(\c1ccc(F)c(F)c1)c1ccc(CN2CCC(c3ccn4ccnc4c3)CC2)cn1` [Example 3-26, (E)-(3,4-Difluorophenyl){5-[(4-imidazo[1,2-a]pyridin-7-ylpiperidin-1-yl)methyl]pyridin-2-yl)methanone O-ethyloxime]: the IC50 came to 0.27 nM.

As for `CCO/N=C(\c1ccc(F)c(F)c1)c1ccc(CN2CCC(c3cn(C)c4cnccc34)CC2)cn1` [Example 3-33, (E)-(3,4-Difluorophenyl)(5-{[4-(1-methyl-1H-pyrrolo[2,3-c]pyridin-3-yl)piperidin-1-yl]methyl}pyridin-2-yl)methanone O-ethyloxime], the IC50 was determined as 0.11 nM. To `CC(C)(O)CO/N=C(\c1ccc(F)c(F)c1)c1ccc(CN2CCC(c3cnn4ncccc34)CC2)cn1` [Example 3-51, (E)-(3,4-Difluorophenyl){5-[(4-pyrazolo[1,5-b]pyridazin-3-ylpiperidin-1-yl)methyl]pyridin-2-yl}methanone O-(2-hydroxy-2-methylpropyl)oxime] belongs 11.2 nM; to `CS(=O)(=O)CO/N=C(\c1ccc(F)c(F)c1)c1ccc(CN2CCC(c3ccc(F)nc3)CC2)cn1` [Example 3-53, (E)-(3,4-Difluorophenyl)(5-{[4-(6-fluoropyridin-3-yl)piperidin-1-yl]methyl}pyridin-2-yl)methanone O-[(methylsulfonyl)methyl]oxime], 6.7 nM. The compound `Fc1ccc(C2CCN(Cc3cnc(/C(=N/OC4CC4)c4ccc(F)c(F)c4)nc3)CC2)cn1` [Example 4-1, (E)-(3,4-difluorophenyl)(5-{[4-(6-fluoropyridin-3-yl)piperidin-1-yl]methyl}pyrimidin-2-yl)methanone-O-cyclopropyloxime] came in with an IC50 of 9.7 nM.
